# Test results published in ChEMBL document CHEMBL3994622, “Design and synthesis of new RAF kinase-inhibiting antiproliferative quinoline derivatives. Part 2: Diarylurea derivatives” (Eur J Med Chem, 2017).
# Tested on: Malme-3M
# Assay: Growth inhibition of human MALME-3M cells assessed as cell growth at 10 uM incubated for 48 hrs by sulforhodamine B assay relative to control
# Type: functional
# Details: read-out: Activity
row,SMILES,growth at 10 µM [%]
1,COc1cc2cc(Oc3ccc(NC(=O)Nc4ccc(C(F)(F)F)cc4)cc3)c(C)nc2cc1OC,82.9

# Tested on: OVCAR-5
# Assay: Growth inhibition of human OVCAR5 cells assessed as cell growth at 10 uM incubated for 48 hrs by sulforhodamine B assay relative to control
# Type: functional
# Details: OVCAR-5, 48 h, read-out: Activity
row,SMILES,growth at 10 µM [%]
1,COc1cc2cc(Oc3ccc(NC(=O)Nc4ccc(C(F)(F)F)cc4)cc3)c(C)nc2cc1OC,92.9

# Tested on: SNB-19
# Assay: Growth inhibition of human SNB19 cells assessed as cell growth at 10 uM incubated for 48 hrs by sulforhodamine B assay relative to control
# Type: functional
# Details: SNB-19, 48 h, read-out: Activity
row,SMILES,growth at 10 µM [%]
1,COc1cc2cc(Oc3ccc(NC(=O)Nc4ccc(C(F)(F)F)cc4)cc3)c(C)nc2cc1OC,93.5

# Tested on: MDA-MB-435
# Assay: Growth inhibition of human MDA-MB-435 cells assessed as cell growth at 10 uM incubated for 48 hrs by sulforhodamine B assay relative to control
# Type: functional
# Details: MDA-MB-435, 48 h, read-out: Activity
row,SMILES,growth at 10 µM [%]
1,COc1cc2cc(Oc3ccc(NC(=O)Nc4ccc(C(F)(F)F)cc4)cc3)c(C)nc2cc1OC,80.3

# Tested on: NCI-H23
# Assay: Growth inhibition of human NCI-H23 cells assessed as cell growth at 10 uM incubated for 48 hrs by sulforhodamine B assay relative to control
# Type: functional
# Details: NCI-H23, 48 h, read-out: Activity
row,SMILES,growth at 10 µM [%]
1,COc1cc2cc(Oc3ccc(NC(=O)Nc4ccc(C(F)(F)F)cc4)cc3)c(C)nc2cc1OC,79.3

# Tested on: A549
# Assay: Growth inhibition of human A549/ATCC cells assessed as cell growth at 10 uM incubated for 48 hrs by sulforhodamine B assay relative to control
# Type: functional
# Details: A549, 48 h, read-out: Activity
row,SMILES,growth at 10 µM [%]
1,COc1cc2cc(Oc3ccc(NC(=O)Nc4ccc(C(F)(F)F)cc4)cc3)c(C)nc2cc1OC,32.4

# Tested on: HCT-15
# Assay: Growth inhibition of human HCT15 cells assessed as cell growth at 10 uM incubated for 48 hrs by sulforhodamine B assay relative to control
# Type: functional
# Details: HCT-15, 48 h, read-out: Activity
row,SMILES,growth at 10 µM [%]
1,COc1cc2cc(Oc3ccc(NC(=O)Nc4ccc(C(F)(F)F)cc4)cc3)c(C)nc2cc1OC,75.4

# Tested on: OVCAR-4
# Assay: Growth inhibition of human OVCAR4 cells assessed as cell growth at 10 uM incubated for 48 hrs by sulforhodamine B assay relative to control
# Type: functional
# Details: OVCAR-4, 48 h, read-out: Activity
row,SMILES,growth at 10 µM [%]
1,COc1cc2cc(Oc3ccc(NC(=O)Nc4ccc(C(F)(F)F)cc4)cc3)c(C)nc2cc1OC,49

# Tested on: HL-60(TB)
# Assay: Growth inhibition of human HL-60(TB) cells assessed as cell growth at 10 uM incubated for 48 hrs by sulforhodamine B assay relative to control
# Type: functional
# Details: HL-60, 48 h, read-out: Activity
row,SMILES,growth at 10 µM [%]
1,COc1cc2cc(Oc3ccc(NC(=O)Nc4ccc(C(F)(F)F)cc4)cc3)c(C)nc2cc1OC,75.2

# Tested on: HT-29
# Assay: Growth inhibition of human HT-29 cells assessed as cell growth at 10 uM incubated for 48 hrs by sulforhodamine B assay relative to control
# Type: functional
# Details: HT-29, 48 h, read-out: Activity
row,SMILES,growth at 10 µM [%]
1,COc1cc2cc(Oc3ccc(NC(=O)Nc4ccc(C(F)(F)F)cc4)cc3)c(C)nc2cc1OC,44.6

# Tested on: SF-268
# Assay: Growth inhibition of human SF268 cells assessed as cell growth at 10 uM incubated for 48 hrs by sulforhodamine B assay relative to control
# Type: functional
# Details: SF-268, 48 h, read-out: Activity
row,SMILES,growth at 10 µM [%]
1,COc1cc2cc(Oc3ccc(NC(=O)Nc4ccc(C(F)(F)F)cc4)cc3)c(C)nc2cc1OC,79.3

# Tested on: SK-MEL-5
# Assay: Growth inhibition of human SK-MEL-5 cells assessed as cell growth at 10 uM incubated for 48 hrs by sulforhodamine B assay relative to control
# Type: functional
# Details: SK-MEL-5, 48 h, read-out: Activity
row,SMILES,growth at 10 µM [%]
1,COc1cc2cc(Oc3ccc(NC(=O)Nc4ccc(C(F)(F)F)cc4)cc3)c(C)nc2cc1OC,47.4

# Tested on: LOX IMVI
# Assay: Growth inhibition of human LOXIMVI cells assessed as cell growth at 10 uM incubated for 48 hrs by sulforhodamine B assay relative to control
# Type: functional
# Details: read-out: Activity
row,SMILES,growth at 10 µM [%]
1,COc1cc2cc(Oc3ccc(NC(=O)Nc4ccc(C(F)(F)F)cc4)cc3)c(C)nc2cc1OC,56.4

# Tested on: COLO 205
# Assay: Growth inhibition of human COLO205 cells assessed as cell growth at 10 uM incubated for 48 hrs by sulforhodamine B assay relative to control
# Type: functional
# Details: COLO 205, 48 h, read-out: Activity
row,SMILES,growth at 10 µM [%]
1,COc1cc2cc(Oc3ccc(NC(=O)Nc4ccc(C(F)(F)F)cc4)cc3)c(C)nc2cc1OC,40.4

# Tested on: IGROV-1
# Assay: Growth inhibition of human IGROV1 cells assessed as cell growth at 10 uM incubated for 48 hrs by sulforhodamine B assay relative to control
# Type: functional
# Details: IGROV-1, 48 h, read-out: Activity
row,SMILES,growth at 10 µM [%]
1,COc1cc2cc(Oc3ccc(NC(=O)Nc4ccc(C(F)(F)F)cc4)cc3)c(C)nc2cc1OC,71.9

# Tested on: ACHN
# Assay: Growth inhibition of human ACHN cells assessed as cell growth at 10 uM incubated for 48 hrs by sulforhodamine B assay relative to control
# Type: functional
# Details: read-out: Activity
row,SMILES,growth at 10 µM [%]
1,COc1cc2cc(Oc3ccc(NC(=O)Nc4ccc(C(F)(F)F)cc4)cc3)c(C)nc2cc1OC,56.1

# Tested on: MCF7
# Assay: Growth inhibition of human MCF7 cells assessed as cell growth at 10 uM incubated for 48 hrs by sulforhodamine B assay relative to control
# Type: functional
# Details: MCF7, 48 h, read-out: Activity
row,SMILES,growth at 10 µM [%]
1,COc1cc2cc(Oc3ccc(NC(=O)Nc4ccc(C(F)(F)F)cc4)cc3)c(C)nc2cc1OC,84.3

# Tested on: K562
# Assay: Growth inhibition of human K562 cells assessed as cell growth at 10 uM incubated for 48 hrs by sulforhodamine B assay relative to control
# Type: functional
# Details: K562, 48 h, read-out: Activity
row,SMILES,growth at 10 µM [%]
1,COc1cc2cc(Oc3ccc(NC(=O)Nc4ccc(C(F)(F)F)cc4)cc3)c(C)nc2cc1OC,57.1

# Tested on: T47D
# Assay: Growth inhibition of human T47D cells assessed as cell growth at 10 uM incubated for 48 hrs by sulforhodamine B assay relative to control
# Type: functional
# Details: read-out: Activity
row,SMILES,growth at 10 µM [%]
1,COc1cc2cc(Oc3ccc(NC(=O)Nc4ccc(C(F)(F)F)cc4)cc3)c(C)nc2cc1OC,57.5

# Tested on: U-251
# Assay: Growth inhibition of human U251 cells assessed as cell growth at 10 uM incubated for 48 hrs by sulforhodamine B assay relative to control
# Type: functional
# Details: U-251, 48 h, read-out: Activity
row,SMILES,growth at 10 µM [%]
1,COc1cc2cc(Oc3ccc(NC(=O)Nc4ccc(C(F)(F)F)cc4)cc3)c(C)nc2cc1OC,15

# Tested on: SF-539
# Assay: Growth inhibition of human SF539 cells assessed as cell growth at 10 uM incubated for 48 hrs by sulforhodamine B assay relative to control
# Type: functional
# Details: SF-539, 48 h, read-out: Activity
row,SMILES,growth at 10 µM [%]
1,COc1cc2cc(Oc3ccc(NC(=O)Nc4ccc(C(F)(F)F)cc4)cc3)c(C)nc2cc1OC,96.9

# Tested on: A498
# Assay: Growth inhibition of human A498 cells assessed as cell growth at 10 uM incubated for 48 hrs by sulforhodamine B assay relative to control
# Type: functional
# Details: A498, 48 h, read-out: Activity
row,SMILES,growth at 10 µM [%]
1,COc1cc2cc(Oc3ccc(NC(=O)Nc4ccc(C(F)(F)F)cc4)cc3)c(C)nc2cc1OC,90.5

# Tested on: MDA-MB-468
# Assay: Growth inhibition of human MDA-MB-468 cells assessed as cell growth at 10 uM incubated for 48 hrs by sulforhodamine B assay relative to control
# Type: functional
# Details: MDA-MB-468, 48 h, read-out: Activity
row,SMILES,growth at 10 µM [%]
1,COc1cc2cc(Oc3ccc(NC(=O)Nc4ccc(C(F)(F)F)cc4)cc3)c(C)nc2cc1OC,40.1

# Tested on: CAKI-1
# Assay: Growth inhibition of human Caki1 cells assessed as cell growth at 10 uM incubated for 48 hrs by sulforhodamine B assay relative to control
# Type: functional
# Details: CAKI-1, 48 h, read-out: Activity
row,SMILES,growth at 10 µM [%]
1,COc1cc2cc(Oc3ccc(NC(=O)Nc4ccc(C(F)(F)F)cc4)cc3)c(C)nc2cc1OC,70.4

# Tested on: NCI-H226
# Assay: Growth inhibition of human NCI-H226 cells assessed as cell growth at 10 uM incubated for 48 hrs by sulforhodamine B assay relative to control
# Type: functional
# Details: NCI-H226, 48 h, read-out: Activity
row,SMILES,growth at 10 µM [%]
1,COc1cc2cc(Oc3ccc(NC(=O)Nc4ccc(C(F)(F)F)cc4)cc3)c(C)nc2cc1OC,20.9

# Tested on: SF-295
# Assay: Growth inhibition of human SF295 cells assessed as cell growth at 10 uM incubated for 48 hrs by sulforhodamine B assay relative to control
# Type: functional
# Details: SF-295, 48 h, read-out: Activity
row,SMILES,growth at 10 µM [%]
1,COc1cc2cc(Oc3ccc(NC(=O)Nc4ccc(C(F)(F)F)cc4)cc3)c(C)nc2cc1OC,56

# Tested on: OVCAR-3
# Assay: Growth inhibition of human OVCAR3 cells assessed as cell growth at 10 uM incubated for 48 hrs by sulforhodamine B assay relative to control
# Type: functional
# Details: OVCAR-3, 48 h, read-out: Activity
row,SMILES,growth at 10 µM [%]
1,COc1cc2cc(Oc3ccc(NC(=O)Nc4ccc(C(F)(F)F)cc4)cc3)c(C)nc2cc1OC,67

# Tested on: 786-0
# Assay: Growth inhibition of human 786-0 cells assessed as cell growth at 10 uM incubated for 48 hrs by sulforhodamine B assay relative to control
# Type: functional
# Details: 786-0, 48 h, read-out: Activity
row,SMILES,growth at 10 µM [%]
1,COc1cc2cc(Oc3ccc(NC(=O)Nc4ccc(C(F)(F)F)cc4)cc3)c(C)nc2cc1OC,74.9

# Tested on: HOP-92
# Assay: Growth inhibition of human HOP92 cells assessed as cell growth at 10 uM incubated for 48 hrs by sulforhodamine B assay relative to control
# Type: functional
# Details: HOP-92, 48 h, read-out: Activity
row,SMILES,growth at 10 µM [%]
1,COc1cc2cc(Oc3ccc(NC(=O)Nc4ccc(C(F)(F)F)cc4)cc3)c(C)nc2cc1OC,56.3

# Tested on: NCI-H460
# Assay: Growth inhibition of human NCI-H460 cells assessed as cell growth at 10 uM incubated for 48 hrs by sulforhodamine B assay relative to control
# Type: functional
# Details: NCI-H460, 48 h, read-out: Activity
row,SMILES,growth at 10 µM [%]
1,COc1cc2cc(Oc3ccc(NC(=O)Nc4ccc(C(F)(F)F)cc4)cc3)c(C)nc2cc1OC,42.8

# Tested on: UACC-62
# Assay: Growth inhibition of human UACC62 cells assessed as cell growth at 10 uM incubated for 48 hrs by sulforhodamine B assay relative to control
# Type: functional
# Details: UACC-62, 48 h, read-out: Activity
row,SMILES,growth at 10 µM [%]
1,COc1cc2cc(Oc3ccc(NC(=O)Nc4ccc(C(F)(F)F)cc4)cc3)c(C)nc2cc1OC,69.2

# Tested on: UO-31
# Assay: Growth inhibition of human UO31 cells assessed as cell growth at 10 uM incubated for 48 hrs by sulforhodamine B assay relative to control
# Type: functional
# Details: UO-31, 48 h, read-out: Activity
row,SMILES,growth at 10 µM [%]
1,COc1cc2cc(Oc3ccc(NC(=O)Nc4ccc(C(F)(F)F)cc4)cc3)c(C)nc2cc1OC,87.6

# Tested on: SK-MEL-2
# Assay: Growth inhibition of human SK-MEL-2 cells assessed as cell growth at 10 uM incubated for 48 hrs by sulforhodamine B assay relative to control
# Type: functional
# Details: SK-MEL-2, 48 h, read-out: Activity
row,SMILES,growth at 10 µM [%]
1,COc1cc2cc(Oc3ccc(NC(=O)Nc4ccc(C(F)(F)F)cc4)cc3)c(C)nc2cc1OC,76.7
